System: Crude diglycosidase
Assay: Examination of substrate concentration in the conversion into isoflavone aglycons by diglycosidase using soybean materials
Type: biochemical, Penicillium multicolor IAM7153
Summary of the method: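 Reaction at 55° C, shaken, pH 4.0 (20 mM acetate), using crude diglycosidase from a 1.88 AU/mL enzyme solution on soy flour, soymilk, defatted soybean or soy protein concentrate at 2, 5, 10, 20 or 30% (w/v). Isoflavone aglycons quantified by HPLC of ethanol extracts at 0, 1, 3, 6 h.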

Decomposition efficiency of genistin family in defatted soybean (substrate concentration 2%, heat treatment of enzyme no, reaction time 0 h): 15.1
Decomposition efficiency of genistin family in defatted soybean (substrate concentration 2%, heat treatment of enzyme no, reaction time 1 h): 68.6
Decomposition efficiency of genistin family in defatted soybean (substrate concentration 2%, heat treatment of enzyme no, reaction time 3 h): 83.0
Decomposition efficiency of genistin family in defatted soybean (substrate concentration 2%, heat treatment of enzyme no, reaction time 6 h): 88.6
Decomposition efficiency of genistin family in defatted soybean (substrate concentration 2%, heat treatment of enzyme yes, reaction time 6 h): 18.0
Decomposition efficiency of genistin family in defatted soybean (substrate concentration 5%, heat treatment of enzyme no, reaction time 0 h): 14.2
Decomposition efficiency of genistin family in defatted soybean (substrate concentration 5%, heat treatment of enzyme no, reaction time 1 h): 61.2
Decomposition efficiency of genistin family in defatted soybean (substrate concentration 5%, heat treatment of enzyme no, reaction time 3 h): 69.9
Decomposition efficiency of genistin family in defatted soybean (substrate concentration 5%, heat treatment of enzyme no, reaction time 6 h): 80.7
Decomposition efficiency of genistin family in defatted soybean (substrate concentration 5%, heat treatment of enzyme yes, reaction time 6 h): 15.4
Decomposition efficiency of genistin family in defatted soybean (substrate concentration 10%, heat treatment of enzyme no, reaction time 0 h): 14.1
Decomposition efficiency of genistin family in defatted soybean (substrate concentration 10%, heat treatment of enzyme no, reaction time 1 h): 57.2
Decomposition efficiency of genistin family in defatted soybean (substrate concentration 10%, heat treatment of enzyme no, reaction time 3 h): 64.0
Decomposition efficiency of genistin family in defatted soybean (substrate concentration 10%, heat treatment of enzyme no, reaction time 6 h): 70.3
Decomposition efficiency of genistin family in defatted soybean (substrate concentration 10%, heat treatment of enzyme yes, reaction time 6 h): 14.5
SMILES: O=c1c(-c2ccc(O)cc2)coc2cc(O)cc(O)c12 [genistein]
